# Laboratory results: ChEMBL document CHEMBL1201862, “PubChem BioAssay data set” (2004)
#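 48-hour exposure; five concentrations; linearly interpolated endpoints. Abbreviation: GI50, concentration required for 50% inhibition of growth.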 Activity calls are given as the source filed them. Cut-off read from the data, not from the text of the source: active = GI50 up to about 1.1 µM and inactive = higher.
# Columns and labels:
# Experiment in all cases: NCI-60 cell line screen, 48 h
# [1] = system: 786-0
# [2] = system: A498
# [3] = system: A549
# [4] = system: ACHN
# [5] = system: BT-549
# [6] = system: CAKI-1
# [7] = system: COLO 205
# [8] = system: DLD-1
# [9] = system: DMS-114
# [10] = system: DMS-273
# [11] = system: DU-145
# [12] = system: EKVX
# [13] = system: HCC 2998
# [14] = system: HL-60
# [15] = system: HOP-18
# [16] = system: HOP-62
# [17] = system: HOP-92
# [18] = system: HT-29
# [19] = system: IGROV-1
# [20] = system: KM-20L2
# [21] = system: KM12
# [22] = system: LOX IMVI
# [23] = system: LXFL 529
# [24] = system: M14
# [25] = system: M19-MEL
# [26] = system: MCF7
# [27] = system: MDA-MB-231
# [28] = system: MDA-MB-435
# [29] = system: MDA-N
# [30] = system: Malme-3M
# [31] = system: NCI-H226
# [32] = system: NCI-H23
# [33] = system: NCI-H522
# [34] = system: NCI/ADR-RES
# [35] = system: OVCAR-3
# [36] = system: OVCAR-4
# [37] = system: OVCAR-5
# [38] = system: PC-3
# [39] = system: RXF 393
# [40] = system: RXF 631
# [41] = system: SF-268
# [42] = system: SF-295
# [43] = system: SF-539
# [44] = system: SK-MEL-2
# [45] = system: SK-MEL-5
# [46] = system: SK-OV-3
# [47] = system: SN12C
# [48] = system: SNB-19
# [49] = system: SNB-75
# [50] = system: SNB-78
# [51] = system: SR
# [52] = system: T47D
# [53] = system: TK-10
# [54] = system: U-251
# [55] = system: UACC-62
# [56] = system: UO-31
# [57] = system: XF498
# [58] = system: CCRF-CEM
# [59] = system: HCT-116
# [60] = system: HCT-15
# [61] = system: Hs-578T
# [62] = system: K562
# [63] = system: MOLT-4
# [64] = system: NCI-H460
# [65] = system: OVCAR-8
# [66] = system: RPMI-8226
# [67] = system: SK-MEL-28
# [68] = system: SW-620
# [69] = system: UACC-257
structure (smiles),measurement,setting,value
COc1cc(Cc2nccc3cc(OC)c(OC)cc23)c(C(C)=O)cc1OC,GI50,[1],65200 nM (inactive)
same,GI50,[2],> 300000 nM (inactive)
same,GI50,[3],> 300000 nM (inactive)
same,GI50,[4],153000 nM (inactive)
same,GI50,[5],> 100000 nM (inactive)
same,GI50,[6],> 300000 nM (inactive)
same,GI50,[7],18400 nM (inactive)
same,GI50,[8],136000 nM (inactive)
same,GI50,[9],5940 nM (inactive)
same,GI50,[10],14900 nM (inactive)
same,GI50,[11],> 100000 nM (inactive)
same,GI50,[12],205000 nM (inactive)
same,GI50,[13],80700 nM (inactive)
same,GI50,[14],59700 nM (inactive)
same,GI50,[15],> 300000 nM (inactive)
same,GI50,[16],39400 nM (inactive)
same,GI50,[17],150000 nM (inactive)
same,GI50,[18],199000 nM (inactive)
same,GI50,[19],173000 nM (inactive)
same,GI50,[20],56900 nM (inactive)
same,GI50,[21],160000 nM (inactive)
same,GI50,[22],23600 nM (inactive)
same,GI50,[23],25500 nM (inactive)
same,GI50,[24],187000 nM (inactive)
same,GI50,[25],64900 nM (inactive)
same,GI50,[26],144000 nM (inactive)
same,GI50,[27],78500 nM (inactive)
same,GI50,[28],61000 nM (inactive)
same,GI50,[29],28200 nM (inactive)
same,GI50,[30],19700 nM (inactive)
same,GI50,[31],10800 nM (inactive)
same,GI50,[32],124000 nM (inactive)
same,GI50,[33],10200 nM (inactive)
same,GI50,[34],> 300000 nM (inactive)
same,GI50,[35],34500 nM (inactive)
same,GI50,[36],6710 nM (inactive)
same,GI50,[37],> 300000 nM (inactive)
same,GI50,[38],> 100000 nM (inactive)
same,GI50,[39],189000 nM (inactive)
same,GI50,[40],> 750000 nM (inactive)
same,GI50,[41],1560 nM (inactive)
same,GI50,[42],> 300000 nM (inactive)
same,GI50,[43],> 94800 nM (inactive)
same,GI50,[44],226000 nM (inactive)
same,GI50,[45],57400 nM (inactive)
same,GI50,[46],128000 nM (inactive)
same,GI50,[47],1760 nM (inactive)
same,GI50,[48],300000 nM (inactive)
same,GI50,[49],3090 nM (inactive)
same,GI50,[50],74600 nM (inactive)
same,GI50,[51],> 750000 nM (inactive)
same,GI50,[52],2200 nM (inactive)
same,GI50,[53],139000 nM (inactive)
same,GI50,[54],2540 nM (inactive)
same,GI50,[55],53000 nM (inactive)
same,GI50,[56],> 139000 nM (inactive)
same,GI50,[57],12200 nM (inactive)
CCC1(O)C(=O)OCc2c1cc1n(c2=O)Cc2cc3cc4c(cc3nc2-1)OCO4 (centres undefined),GI50,[1],< 10 nM (active)
same,GI50,[2],< 10.3 nM (active)
same,GI50,[3],< 10 nM (active)
same,GI50,[4],< 10 nM (active)
same,GI50,[5],16.3 nM (active)
same,GI50,[6],< 10 nM (active)
same,GI50,[58],< 10 nM (active)
same,GI50,[7],71.3 nM (active)
same,GI50,[8],75.9 nM (active)
same,GI50,[9],< 10 nM (active)
same,GI50,[10],< 10 nM (active)
same,GI50,[11],< 10 nM (active)
same,GI50,[12],77.6 nM (active)
same,GI50,[13],23.3 nM (active)
same,GI50,[59],< 10 nM (active)
same,GI50,[60],30.6 nM
same,GI50,[14],< 10 nM (active)
same,GI50,[15],< 10 nM (active)
same,GI50,[16],< 10 nM (active)
same,GI50,[17],19.1 nM (active)
same,GI50,[18],11.3 nM (active)
same,GI50,[61],857 nM (active)
same,GI50,[19],27.6 nM (active)
same,GI50,[62],14.2 nM (active)
same,GI50,[20],13.7 nM (active)
same,GI50,[22],< 10 nM (active)
same,GI50,[23],61.7 nM (active)
same,GI50,[24],< 10 nM (active)
same,GI50,[25],< 10 nM (active)
same,GI50,[26],< 10 nM (active)
same,GI50,[27],346 nM (active)
same,GI50,[28],< 13.1 nM (active)
same,GI50,[63],< 10 nM (active)
same,GI50,[30],16.4 nM (active)
same,GI50,[31],< 10 nM (active)
same,GI50,[32],< 10 nM (active)
same,GI50,[64],< 10 nM (active)
same,GI50,[33],< 10 nM (active)
same,GI50,[34],< 10 nM (active)
same,GI50,[35],46.6 nM (active)
same,GI50,[36],55.1 nM (active)
same,GI50,[37],32.7 nM (active)
same,GI50,[65],< 10 nM (active)
same,GI50,[38],204 nM (active)
same,GI50,[66],23.6 nM (active)
same,GI50,[39],< 10 nM (active)
same,GI50,[40],17.6 nM (active)
same,GI50,[41],< 36.3 nM (active)
same,GI50,[42],< 10 nM (active)
same,GI50,[43],31.6 nM (active)
same,GI50,[67],112 nM (active)
same,GI50,[44],127 nM (active)
same,GI50,[45],< 10 nM (active)
same,GI50,[46],10.2 nM (active)
same,GI50,[47],< 10 nM (active)
same,GI50,[48],< 10 nM (active)
same,GI50,[49],< 10 nM (active)
same,GI50,[50],3370 nM (inactive)
same,GI50,[51],< 215 nM (active)
same,GI50,[68],< 11.5 nM (active)
same,GI50,[52],< 10 nM (active)
same,GI50,[53],310 nM (active)
same,GI50,[54],< 10 nM (active)
same,GI50,[69],24.2 nM (active)
same,GI50,[55],< 10 nM (active)
same,GI50,[56],< 11.1 nM (active)
same,GI50,[57],< 18.5 nM (active)
